Test results published in ChEMBL document CHEMBL1201862, “PubChem BioAssay data set” (2004).
Activity calls are given as the source filed them.

Tests used:
[1] = target: T1, Endoribonuclease toxin MazF (Escherichia coli K-12, UniProt P0AE70); test: substrate-only fluorescence increase artefacts – biochemical, single-stranded RNase substrate, counter-screen for MazEF activator project, dose response (AID 588502); assay type: functional
T1 sequence (P0AE70 whole entry): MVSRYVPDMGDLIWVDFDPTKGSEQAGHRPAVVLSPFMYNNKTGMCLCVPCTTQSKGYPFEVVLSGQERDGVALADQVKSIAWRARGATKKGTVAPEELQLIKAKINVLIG

[2] = target: T1, Endoribonuclease toxin MazF; test: activation of MazEF endoribonuclease cleavage – biochemical, fluorescence, single-stranded RNA substrate, uHTS hits, dose response (AID 588481); assay type: functional
[3] = target: T2, Zinc finger protein mex-5 (Caenorhabditis elegans, UniProt Q9XUB2); test: potency of MEX-5 RNA-binding blockers – biochemical, C. elegans, fluorescence polarization, dose response (AID 1960)
T2 sequence (Q9XUB2 whole entry): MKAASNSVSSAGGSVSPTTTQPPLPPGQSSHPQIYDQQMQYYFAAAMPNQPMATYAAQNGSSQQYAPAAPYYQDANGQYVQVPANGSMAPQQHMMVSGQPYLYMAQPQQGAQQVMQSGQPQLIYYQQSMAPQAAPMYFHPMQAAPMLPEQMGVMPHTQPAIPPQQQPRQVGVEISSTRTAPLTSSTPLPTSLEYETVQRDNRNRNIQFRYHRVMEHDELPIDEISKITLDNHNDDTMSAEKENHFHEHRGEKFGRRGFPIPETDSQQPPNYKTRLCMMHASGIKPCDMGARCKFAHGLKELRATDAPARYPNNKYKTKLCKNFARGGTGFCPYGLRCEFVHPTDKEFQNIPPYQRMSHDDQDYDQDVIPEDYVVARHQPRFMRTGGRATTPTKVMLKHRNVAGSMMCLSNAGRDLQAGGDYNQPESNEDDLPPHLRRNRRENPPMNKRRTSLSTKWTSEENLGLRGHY

[4] = target: T3, RNA-binding protein pos-1 (Caenorhabditis elegans, UniProt G5EF15); test: disruptors of C. elegans POS-1 RNA interaction – biochemical, fluorescence polarization, dose response (AID 1964);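 further: purified POS-1 fused to maltose binding protein made in E. coli; potency of compounds blocking POS-1 binding to fluorescent RNA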
T3 sequence (G5EF15 whole entry): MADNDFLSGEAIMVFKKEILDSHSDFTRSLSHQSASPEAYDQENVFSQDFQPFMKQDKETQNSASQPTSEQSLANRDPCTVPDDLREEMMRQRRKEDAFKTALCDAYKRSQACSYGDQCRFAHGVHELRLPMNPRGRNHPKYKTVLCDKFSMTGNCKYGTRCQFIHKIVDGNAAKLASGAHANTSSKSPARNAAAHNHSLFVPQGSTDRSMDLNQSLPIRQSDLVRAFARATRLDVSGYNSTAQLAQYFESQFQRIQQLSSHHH

[5] = target: T4, Ubiquitin-conjugating enzyme E2 N (Homo sapiens, UniProt P61088); assay type: functional
T4 sequence (P61088 whole entry): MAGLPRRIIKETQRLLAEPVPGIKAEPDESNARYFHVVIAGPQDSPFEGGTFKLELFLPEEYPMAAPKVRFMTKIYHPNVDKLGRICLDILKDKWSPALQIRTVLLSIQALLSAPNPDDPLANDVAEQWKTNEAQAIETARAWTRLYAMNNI

Bcl-2-related protein A1 = target: T5, Bcl-2-related protein A1 (Mus musculus, UniProt Q07440); assay type: functional;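 further: confirmatory dose–response counterscreen on Bfl-1, used to check hits from a UBC13 polyubiquitin inhibitor campaign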
T5 sequence (Q07440 whole entry): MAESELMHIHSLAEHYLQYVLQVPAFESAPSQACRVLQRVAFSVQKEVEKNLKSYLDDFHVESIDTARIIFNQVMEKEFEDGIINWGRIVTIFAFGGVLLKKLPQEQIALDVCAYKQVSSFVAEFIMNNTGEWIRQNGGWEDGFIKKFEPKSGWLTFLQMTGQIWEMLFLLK

[6] = target: T4, Ubiquitin-conjugating enzyme E2 N; assay type: functional; remark: listed apart in the source
[7] = target: T6, Heat shock factor protein 1 (Mus musculus, UniProt P38532); test: enhancement of HSF1-driven luciferase signal – cell-based, NIH3T3, luminescence, dose retest, confirmation (AID 435004); assay type: functional;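 further: stress induced by proteasome inhibitor MG132 added 30 min after compound; luciferase reporter driven by HSF1 response element in NIH3T3 cells; actives raise luminescence as potentiators of the MG132 stress response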
T6 sequence (P38532 whole entry): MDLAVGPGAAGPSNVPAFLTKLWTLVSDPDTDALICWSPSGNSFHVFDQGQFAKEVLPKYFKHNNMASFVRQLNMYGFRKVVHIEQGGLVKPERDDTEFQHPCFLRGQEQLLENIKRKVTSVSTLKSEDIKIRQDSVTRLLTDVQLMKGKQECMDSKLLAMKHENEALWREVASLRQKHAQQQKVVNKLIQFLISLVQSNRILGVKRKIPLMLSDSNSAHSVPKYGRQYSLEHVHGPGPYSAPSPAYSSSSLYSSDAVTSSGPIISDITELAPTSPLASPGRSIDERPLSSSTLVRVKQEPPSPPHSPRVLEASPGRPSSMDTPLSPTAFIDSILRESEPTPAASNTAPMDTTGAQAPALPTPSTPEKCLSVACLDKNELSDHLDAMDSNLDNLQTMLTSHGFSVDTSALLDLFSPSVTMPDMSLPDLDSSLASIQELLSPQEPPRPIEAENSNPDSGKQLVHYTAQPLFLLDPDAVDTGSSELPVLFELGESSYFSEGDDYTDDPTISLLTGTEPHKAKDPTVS

[8] = target: Dual specificity tyrosine-phosphorylation-regulated kinase 1A (Rattus norvegicus, UniProt Q63470); assay type: biochemical, Homo sapiens
Troponin, cardiac muscle = Troponin, cardiac muscle (Homo sapiens, UniProt P19429+P45379+P63316); test: Fluorescence-based biochemical high throughput dose response assay for activators of the calcium sensitivity of cardiac Regulated Thin Filaments (RTF). [Related pubchem assays (depositor defined):AID493008, AID493018, AID504382, AID504383]; assay type: protein-complex assay
[9] = target: T7, Carboxy-terminal domain RNA polymerase II polypeptide A small phosphatase 1 (Homo sapiens, UniProt Q9GZU7); test: CTDSP1 inhibitors, concentration-response, biochemical, absorbance readout, ultra-high-throughput screen actives (AID 540297); assay type: functional
T7 sequence (Q9GZU7 whole entry): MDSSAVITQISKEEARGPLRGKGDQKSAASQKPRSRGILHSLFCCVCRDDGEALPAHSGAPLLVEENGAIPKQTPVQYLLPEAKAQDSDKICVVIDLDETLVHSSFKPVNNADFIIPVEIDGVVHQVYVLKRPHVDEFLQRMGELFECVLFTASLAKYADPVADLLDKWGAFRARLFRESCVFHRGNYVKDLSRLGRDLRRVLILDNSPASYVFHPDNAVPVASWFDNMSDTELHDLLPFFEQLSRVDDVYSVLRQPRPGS

[10] = HIV-1 Vif–A3G interaction blockers – biochemical, TR-FRET, GST-Vif 1-94, biotin-A3G peptide, dose response retest, primary screen (AID 1117319); assay type: functional;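 further: TR-FRET signal of purified GST-Vif binding a biotinylated A3G peptide; inhibitors lower the FRET signal by blocking Vif and A3G binding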
[11] = target: T8, DNA dC->dU-editing enzyme APOBEC-3G (Homo sapiens, UniProt Q9HC16); assay type: functional
T8 sequence (Q9HC16 whole entry): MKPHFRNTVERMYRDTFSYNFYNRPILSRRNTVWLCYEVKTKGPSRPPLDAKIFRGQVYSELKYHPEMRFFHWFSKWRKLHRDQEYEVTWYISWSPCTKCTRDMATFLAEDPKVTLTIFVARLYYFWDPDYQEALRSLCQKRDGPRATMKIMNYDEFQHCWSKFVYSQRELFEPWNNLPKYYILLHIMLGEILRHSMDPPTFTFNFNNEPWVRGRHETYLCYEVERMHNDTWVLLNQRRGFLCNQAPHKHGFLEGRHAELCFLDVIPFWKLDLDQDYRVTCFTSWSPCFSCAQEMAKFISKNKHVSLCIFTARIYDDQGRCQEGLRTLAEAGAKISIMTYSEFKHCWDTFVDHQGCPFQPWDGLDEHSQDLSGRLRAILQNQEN

[12] = target: T9, DNA dC->dU-editing enzyme APOBEC-3A (Homo sapiens, UniProt P31941); test: Dose Response confirmation of small molecule APOBEC3A DNA Deaminase Inhibitors via a fluorescence-based single-stranded DNA deaminase assay. [Related pubchem assays (depositor defined):AID493011, AID493024]; assay type: functional
T9 sequence (P31941 whole entry): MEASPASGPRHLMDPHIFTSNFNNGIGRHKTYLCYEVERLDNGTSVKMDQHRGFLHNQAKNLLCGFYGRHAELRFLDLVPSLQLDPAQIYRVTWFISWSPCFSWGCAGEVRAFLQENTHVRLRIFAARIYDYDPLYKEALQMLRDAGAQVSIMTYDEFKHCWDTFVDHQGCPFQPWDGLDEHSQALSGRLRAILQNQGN

Vero = test: viability of Vero cells under compound – cytotoxicity control for flavivirus capping enzyme inhibitors (AID 588742); assay type: functional; settings: Chlorocebus sabaeus
INS1 = test: INS-1E survival protection against cytokine death – cell-based, luminescence, retest, dose response (AID 449756); assay type: functional; settings: Rattus norvegicus;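 further: cell death triggered by IL-1 beta plus TNF-alpha plus IFN-gamma mixture; protective hits raise ATP signal compared with cytokine alone wells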
[13] = NIH-3T3 fibroblast cytotoxicity, dose response, cytotoxicity control, cell-based, fluorescence, Alamar Blue, secondary assay (AID 2327); assay type: functional;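 further: NIH-3T3 mouse fibroblasts cultured with fluconazole at 8 µg/mL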
[14] = non-specific 3'UTR reporter inhibition in Clone20-Shn3RL – cell-based, Renilla luciferase, cherry-picked, counter-screen for Shn3 inhibitor project, dose response (AID 624133); assay type: functional
[15] = Trypanosoma cruzi growth suppression in host cells – NIH3T3 host cells, beta-gal luminescence, confirmation (AID 2044); assay type: functional, cell-based;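 further: intracellular parasites grown in NIH/3T3 mouse fibroblasts as host cells; luminescent beta-galactosidase reporter signal from transgenic T. cruzi replicating inside host cells; inhibitors lower the luminescence signal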
[16] = reduction of Shn3 3'UTR-driven luciferase in osteoblasts – cell-based, Clone20 osteoblasts, firefly luciferase, cherry-picked, dose response (AID 624132); assay type: functional;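 further: firefly luciferase luminescence from reporter carrying the Shn3 3'UTR in osteoblasts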
HEK293 = test: EBV LMP1 TES2 canonical NF-kB signalling blockers – cell-based, HEK293, luciferase, cherry-pick, dose response (AID 588343); assay type: functional; settings: Homo sapiens
H4 = test: Luminescence Cell-Based Dose Response HTS to Identify Activators of 5'UTR Stem-Loop Driven Prion Protein mRNA Translation in H4 Neuroglioblastoma Cells. [Related pubchem assays: 1829 (Project Summary), 1814 (Primary HTS)]; assay type: functional; settings: Homo sapiens
[17] = Luminescence Cell-Based Dose Confirmation HTS to Identify Activators of 5'UTR Stem-Loop Driven Alpha-Synuclein mRNA Translation in H4 Neuroglioblastoma Cells. [Related pubchem assays: 1829 (Project Summary), 1814 (Primary HTS)]; assay type: functional
[18] = NIH3T3 cell viability loss – ATP luminescence, mouse fibroblasts, counter-screen, dose response (AID 2010); assay type: functional, cell-based;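 further: cells exposed to compound for about 90 hours before reading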
[19] = Luminescence Cell-Based Dose Response HTS to Identify Activators of Luciferase Translation or Activity in H4 […] Cells. [Related pubchem assays: 1829 (Project Summary), 1814 (Primary HTS)]; assay type: functional
[20] = fluconazole-exposed Candida albicans growth modulators – fluorescence, retest, confirmation (AID 2467); assay type: functional, cell-based
[21] = loss of viability in HepG2 cells – cell-based, CellTiter-Glo, cherry-picked, cytotoxicity control for Shn3 inhibitor project, dose response (AID 624134); assay type: functional
[22] = target: T9, DNA dC->dU-editing enzyme APOBEC-3A; test: A3A deaminase inhibition for selectivity – biochemical, dose response (AID 504722); assay type: functional
[23] = target: T8, DNA dC->dU-editing enzyme APOBEC-3G; test: Dose Response confirmation of small molecule APOBEC3G DNA Deaminase Inhibitors via a fluorescence-based single-stranded DNA deaminase assay. [Related pubchem assays (depositor defined):AID493012, AID493028]; assay type: functional
Large T antigen = Large T antigen (Simian virus 40, UniProt P03070); assay type: functional, Betapolyomavirus macacae;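 further: Confirmatory-stage PubChem screen for compounds that inhibit SV40 T antigen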
Large T antigen, sequence (P03070 whole entry): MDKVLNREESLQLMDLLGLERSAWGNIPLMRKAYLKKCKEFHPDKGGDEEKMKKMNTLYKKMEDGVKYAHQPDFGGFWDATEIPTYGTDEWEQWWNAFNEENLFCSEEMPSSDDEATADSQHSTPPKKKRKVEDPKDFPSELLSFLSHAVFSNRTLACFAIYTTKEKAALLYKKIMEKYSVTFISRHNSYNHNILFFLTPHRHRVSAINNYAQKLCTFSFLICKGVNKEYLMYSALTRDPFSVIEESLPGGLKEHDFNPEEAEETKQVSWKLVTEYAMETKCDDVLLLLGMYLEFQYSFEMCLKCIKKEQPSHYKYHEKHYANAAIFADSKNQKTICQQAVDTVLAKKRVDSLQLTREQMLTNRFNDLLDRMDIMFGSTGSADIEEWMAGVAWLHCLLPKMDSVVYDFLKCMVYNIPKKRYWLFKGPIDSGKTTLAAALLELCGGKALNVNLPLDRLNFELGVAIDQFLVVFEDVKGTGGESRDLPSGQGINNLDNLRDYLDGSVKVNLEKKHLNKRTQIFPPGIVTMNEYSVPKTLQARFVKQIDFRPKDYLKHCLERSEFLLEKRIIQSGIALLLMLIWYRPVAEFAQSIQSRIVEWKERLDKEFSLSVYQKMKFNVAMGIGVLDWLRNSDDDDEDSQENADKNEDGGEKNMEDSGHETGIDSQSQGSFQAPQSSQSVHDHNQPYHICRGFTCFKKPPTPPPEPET

## CCCCN1C(=O)NC(=O)/C(=C/c2c[nH]c3ccccc23)C1=O
[1]
  EC50: > 99 µM (inactive)
[2]
  EC50: > 99 µM (inactive)
[3]
  EC50: 29.9 µM (active)
[4]
  EC50: 28.4 µM (inconclusive)

## O=C(CSCc1ccc([N+](=O)[O-])cc1)N[N-][C+]1CCCCCC1
[5]
  IC50: 13.7 µM (active)
Bcl-2-related protein A1
  IC50: > 20 µM (inactive)
[6]
  IC50: 5.71 µM (active)

## O=C1NC(=S)S/C1=C/c1ccc(OC(=O)c2ccco2)cc1
[1]
  EC50: 16.4 µM (active)
[7]
  EC50: > 260 µM (inactive)
[8]
  AC50: 4.1 µM (active)
[2]
  EC50: > 99 µM (inactive)

## CCc1nc(Nc2cccc(O)c2)c2oc3ccccc3c2n1
[8]
  AC50: 9.77 µM (active)

## CC(=O)C(=CNc1noc(C)c1Br)C(C)=O
Troponin, cardiac muscle
  EC50: > 71.6 µM (inactive)

## COc1ccc2c(c1)c(=O)oc1c(C)c(OCc3cc(C(=O)O)oc3C)ccc12
[8]
  AC50: 1.51 µM (active)
[9]
  IC50: 9.08 µM (active)

## CNc1ccccc1C(C)(C)c1cc(C)[nH]n1
Troponin, cardiac muscle
  EC50: > 71.5 µM (inactive)

## COc1ccc(S(=O)(=O)N(CCc2ccccc2)CC(=O)NC(C)C)cc1
[10]
  IC50: > 100 µM (active)
[11]
  IC50: 5.95 µM (active)
[12]
  IC50: 6.35 µM (active)

## O=C(NCc1ccco1)c1cc(-c2cccs2)nc2ccccc12
Vero
  CC50: > 40 µM (active)

## CCn1c(/C=C/c2ccc([N+](=O)[O-])o2)nc2ccccc2c1=O
INS1
  AC50: 3.43 µM (active)
[1]
  EC50: > 99 µM (inactive)
[2]
  EC50: > 99 µM (inactive)
[13]
  EC50: 7.6 µM (inconclusive)
[14]
  AC50: 8.48 µM (active)
[3]
  EC50: > 150 µM (inconclusive)
[15]
  EC50: 0.213 µM (active)
[16]
  AC50: 4.51 µM (active)
[4]
  EC50: 5.46 µM (inconclusive)
HEK293
  AC50: 10.8 µM (active)
H4
  EC50: > 120 µM (not active)
[17]
  EC50: > 120 µM (not active)
[18]
  EC50: 3.14 µM (active)
[19]
  EC50: > 60 µM (not active)
[20]
  EC50: 0.682 µM (active)
[21]
  AC50: 13.6 µM (active)

## NC(=O)NC(CC(=O)NNC(=O)c1ccccn1)c1ccc(Cl)cc1 (stereo not given)
[5]
  IC50: 12.4 µM (active)
Bcl-2-related protein A1
  IC50: > 20 µM (inactive)
[6]
  IC50: 19.6 µM (active)

## Cc1cc(Cl)nc(N)n1
Troponin, cardiac muscle
  EC50: > 71.4 µM (inactive)

## COc1ccccc1/C=C/C=N/n1c(S)nnc1-c1ccncc1
[22]
  IC50: > 100 µM (inactive)
[23]
  IC50: 2.21 µM (active)

## CC(/C=N/n1c(S)nnc1-c1[nH]nc2c1CCC2)=C\c1ccco1
[22]
  IC50: > 100 µM (inactive)
[23]
  IC50: 2.29 µM (active)
Large T antigen
  IC50: 32.3 µM (active)

## COc1cccc(/C=N\NC(=O)c2sc(N)nc2C)c1OC
[5]
  IC50: 0.965 µM (active)
Bcl-2-related protein A1
  IC50: > 20 µM (inactive)
[6]
  IC50: 0.947 µM (active)

## COc1cc2c(cc1OC)-c1c(OC)c(OC)cc3c1[C@H](C2)[N+](C)(C)CC3 [GLAUCINE METHIODIDE]
[11]
  IC50: 1.66 µM (active)
[12]
  IC50: 1.85 µM (active)
